This passage reports IC50 results from patent US6747023B1 (Daiichi Pharmaceutical Co., Ltd., priority 1998, dated 2004).

Structures can show the parent of a compound that is named as a salt. A value given as a limit tells only on which side of the number the result lay.

T1 sequence (P00742 235-488 limits assumed): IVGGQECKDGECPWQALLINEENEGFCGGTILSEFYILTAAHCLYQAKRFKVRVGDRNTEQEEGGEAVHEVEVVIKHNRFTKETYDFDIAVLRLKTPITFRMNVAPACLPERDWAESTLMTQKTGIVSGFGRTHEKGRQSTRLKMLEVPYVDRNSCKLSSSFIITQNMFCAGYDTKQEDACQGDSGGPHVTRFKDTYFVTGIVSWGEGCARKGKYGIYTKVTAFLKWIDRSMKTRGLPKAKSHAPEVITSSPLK
T1 sequence (P00742 41-179 partner limits assumed): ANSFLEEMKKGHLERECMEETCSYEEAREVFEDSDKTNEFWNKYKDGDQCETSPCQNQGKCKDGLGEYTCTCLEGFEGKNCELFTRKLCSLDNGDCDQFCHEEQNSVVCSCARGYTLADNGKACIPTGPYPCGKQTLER

This test addresses T1, human FXa (Homo sapiens, UniProt P00742).
T1 construct: purchased Cosmobio-ERL HFXa-1011
The test can be described thus: Measurement of FXa inhibitory action (IC50). It counts as biochemical. As to conditions: 0.05 U/ml human FXa, substrate S2222, absorbance at 405 nm, room temperature; read-out: Concentration (nM) of the sample at which 50% of Fxa activity is inhibited. How it is done:
Measurement of FXa Inhibitory Action (IC50)
From the below-described equation, an inhibitory ratio % of each sample was determined.
Inhibitory ratio (%)=(1−OD of sample÷OD of control)×100
Regarding “1-[(5-Chloroindol-2-yl)sulfonyl]-4-[4-methyl-2-(pyridin-4-yl)thiazol-5-yl]piperazine [Example A-296]”, the IC50 is 1.3 nM. As for “4-[(6-Chlorobenzo[b]thien-2-yl)sulfonyl]-2-(hydroxymethyl)-1-[5-(pyridin-4-yl)pyrimidin-2-yl]piperazine hydrochloride [Example A-277]”, the IC50 was found to be 2.7 nM.

In the case of `O=C(c1ccc(-c2ccncc2)cc1)N1CCN(S(=O)(=O)c2ccc3cc(Cl)ccc3c2)CC1` [Example A-1, 1-[(6-Chloronaphthalen-2-yl)sulfonyl]-4-[4-(pyridin-4-yl)benzoyl]piperazine hydrochloride], the IC50 was determined as 123 nM. For the compound `O=C(c1cnccc1-c1ccncc1)N1CCN(S(=O)(=O)c2ccc3cc(Cl)ccc3c2)CC1` [Example A-4, hydrochloride], the IC50 came to 54 nM. Consider `O=C(c1ccc(-c2ccccn2)cc1)N1CCN(S(=O)(=O)c2ccc3cc(Cl)ccc3c2)CC1` [Example A-17, 1-[(6-Chloronaphthalen-2-yl)sulfonyl]-4-[4-(pyridin-2-yl)benzoyl]piperazine hydrochloride], for which the IC50 was found to be 180 nM. As for `Cc1c(S(=O)(=O)N2CCN(C(=O)c3ccc(-c4ccncc4)cc3)CC2)sc2ccc(Cl)cc12` [Example A-83, 1-[(5-Chloro-3-methylbenzo[b]thien-2-yl)sulfonyl]-4-[4-(piridin-4-yl)benzoyl]piperazine], the IC50 came out at 2800 nM.

Consider `O=C(c1ccc(-c2ccncc2)cc1)N1CCN(S(=O)(=O)c2cc3cc(Cl)ccc3o2)CC1` [Example A-85, 1-[(5-Chlorobenzo[b]furan-2-yl)sulfonyl]-4-[4-(pyridin-4-yl)benzoyl]piperazine], for which the IC50 was 1000 nM.

As to `O=C(c1ccc(-c2ccncc2)cc1)N1CCN(S(=O)(=O)c2cc3ccc(Cl)cc3o2)CC1` [Example A-86, 1-[(6-Chlorobenzo[b]furan-2-yl)sulfonyl]-4-[4-(pyridin-4-yl)benzoyl]piperazine], the IC50 was greater than 10000 nM. Turning to `O=C(c1ccc(-c2ccccn2)cc1)N1CCN(S(=O)(=O)c2cc3cc(Cl)ccc3[nH]2)CC1` [Example A-90, 1-[(5-Chloroindol-2-yl)sulfonyl]-4-[4-(pyridin-2-yl)benzoyl]piperazine hydrochloride], the IC50 came out at 16 nM. The value for `Cn1c(S(=O)(=O)N2CCN(C(=O)c3ccc(-c4ccncc4)cc3)CC2)cc2cc(Cl)ccc21` [Example A-91, 1-[(5-Chloro-1-methylindol-2-yl)sulfonyl]-4-[4-(pyridin-4-yl)benzoyl]piperazine] was 7000 nM.

As to `O=C(c1ccc(-c2ccncc2)cc1)N1CCN(S(=O)(=O)c2cc3cc(Cl)ccc3s2)CC1` [Example A-96, 1-[(5-Chlorobenzo[b]thien-2-yl)sulfonyl]-4-[4-(pyridin-4-yl)benzoyl]piperazine hydrochloride], the IC50 was determined as 450 nM. The value for `O=C(c1ccc(-c2ccncc2)cc1)N1CCN(S(=O)(=O)c2cc3ccc(Cl)cc3s2)CC1` [Example A-97, 1-[(6-Chlorobenzo[b]thien-2-yl)sulfonyl]-4-[4-(pyridin-4-yl)benzoyl]piperazine hydrochloride] was 82 nM; that for `O=C(c1ccc(-c2ccccn2)cc1)N1CCN(S(=O)(=O)c2cc3ccc(Cl)cc3s2)CC1` [Example A-98, 1-[(6-Chlorobenzo[b]thien-2-yl)sulfonyl]-4-[4-(pyridin-2-yl)benzoyl]piperazine hydrochloride] was 125 nM. Consider `O=C(c1ccc(-c2ccncc2)cc1)N1CCN(S(=O)(=O)c2cc3cc(Cl)ccc3[nH]2)CC1` [Example A-101, 1-[(5-Chloroindol-2-yl)sulfonyl]-4-[4-(pyridin-4-yl)benzoyl]piperazine], for which the IC50 was 9.5 nM.

In the case of `O=C(c1ccc(-c2cc[n+]([O-])cc2)cc1)N1CCN(S(=O)(=O)c2cc3ccc(Cl)cc3[nH]2)CC1` [Example A-106, 4-[4-[[4-[(6-Chloroindol-2-yl)sulfonyl]piperazin-1-yl]carbonyl]phenyl]pyridine N-oxide], the IC50 is 420 nM. As for `O=C(c1ccc(-c2cc[n+]([O-])cc2)cc1)N1CCN(S(=O)(=O)c2cc3cc(Cl)ccc3[nH]2)CC1` [Example A-107, 4-[4-[[4-[(5-Chloroindol-2-yl)sulfonyl]piperazin-1-yl]carbonyl]phenyl]pyridine N-oxide], the figure is 4.7 nM; as for `O=C(c1ccc(-c2cc[n+]([O-])cc2)cc1)N1CCN(S(=O)(=O)c2cc3ccc(Cl)cc3s2)CC1` [Example A-116, 4-[4-[[4-[(6-Chlorobenzo[b]thien-2-yl)sulfonyl]piperazin-1-yl]carbonyl]phenyl]pyridine N-oxide], 8.6 nM; as for `C#Cc1ccc2[nH]c(S(=O)(=O)N3CCN(C(=O)c4ccc(-c5cc[n+]([O-])cc5)cc4)CC3)cc2c1` [Example A-120, 4-[4-[[4-[(5-Ethynylindol-2-yl)sulfonyl]piperazin-1-yl]carbonyl]phenyl]pyridine N-oxide], 14 nM. On to `NC(=O)CC1CN(S(=O)(=O)c2cc3cc(Cl)ccc3[nH]2)CCN1C(=O)c1ccc(-c2ccncc2)cc1` (stereo not drawn) [Example A-130, 2-Carbamoylmethyl-4-[(5-chloroindol-2-yl)sulfonyl]-1-[4-(pyridin-4-yl)benzoyl]piperazine], for which the IC50 came to 3.6 nM. On to `O=C(c1cnc(-c2ccncc2)nc1)N1CCN(S(=O)(=O)c2cc3cc(Cl)ccc3[nH]2)CC1` [Example A-131, 1-[(5-Chloroindol-2-yl)sulfonyl]-4-[[2-(pyridin-4-yl)pyrimidin-5-yl]carbonyl]piperazine], for which the IC50 turned out to be 19 nM. As for `O=C(c1cnc(-c2cc[n+]([O-])cc2)nc1)N1CCN(S(=O)(=O)c2cc3cc(Cl)ccc3[nH]2)CC1` [Example A-135, 4-[5-[[4-[(5-Chloroindol-2-yl)sulfonyl]piperazin-1-yl]carbonyl]pyrimidin-2-yl]pyridine N-oxide], the IC50 was found to be 14 nM. Turning to `O=C(c1ccc(-c2ccnc(CO)c2)cc1)N1CCN(S(=O)(=O)c2ccc3cc(Cl)ccc3c2)CC1` [Example A-152, 1-[(6-Chloronaphthalen-2-yl)sulfonyl]-4-[4-(2-hydroxymethylpyridin-4-yl)benzoyl]piperazine], the IC50 is 38 nM. Take `NCc1cc(-c2ccc(C(=O)N3CCN(S(=O)(=O)c4ccc5cc(Cl)ccc5c4)CC3)cc2)ccn1` [Example A-155, 1-[4-(2-Aminomethylpyridin-4-yl)benzoyl]-4-[(6-chloronaphthalen-2-yl)sulfonyl]piperazine hydrochloride]: the IC50 came out at 28 nM.

For `NC(=O)C[C@@H]1CN(S(=O)(=O)c2ccc3cc(Cl)ccc3c2)C[C@H](CC(N)=O)N1C(=O)c1ccc(-c2ccncc2)cc1` [Example A-173, cis-2,6-Bis(carbamoylmethyl)-4-[(6-chloronaphthalen-2-yl)sulfonyl]-1-[4-(pyridin-4-yl)benzoyl]piperazine], the IC50 was determined as 10 nM. Turning to `O=C(c1ncc(-c2cccc[n+]2[O-])cn1)N1CCN(S(=O)(=O)c2cc3cc(Cl)ccc3[nH]2)CC1` [Example A-183, 2-[2-[[4-[(5-Chloroindol-2-yl)sulfonyl]piperazin-1-yl]carbonyl]pyrimidin-5-yl]pyridine N-oxide], the IC50 was 4.7 nM.

Take `O=C(c1ncc(-c2cccc[n+]2[O-])cn1)N1CCN(S(=O)(=O)c2cc3ccc(Cl)cc3s2)CC1` [Example A-185, 2-[2-[[4-[(6-Chlorobenzo[b]thien-2-yl)sulfonyl]piperazin-1-yl]carbonyl]pyrimidin-5-yl]pyridine N-oxide]: the IC50 stood at 6.3 nM. As for `Cc1cc(-c2cnc(C(=O)N3CCN(S(=O)(=O)c4cc5cc(Cl)ccc5[nH]4)CC3)nc2)ccn1` [Example A-186, 1-[(5-Chloroindol-2-yl)sulfonyl]-4-[[5-(2-methylpyridin-4-yl)pyrimidin-2-yl]carbonyl]piperazine], the figure is 1.9 nM; as for `CCC1CN(S(=O)(=O)c2cc3cc(Cl)ccc3[nH]2)CCN1C(=O)c1ncc(-c2cccc[n+]2[O-])cn1` (stereo not drawn) [Example A-224, 2-[2-[[4-[(5-Chloroindol-2-yl)sulfonyl]-2-ethylpiperazin-1-yl]carbonyl]pyrimidin-5-yl]pyridine N-oxide], 7.6 nM.

For `Cc1cc(-c2cnc(C(=O)N3CCN(S(=O)(=O)c4cc5cc(Cl)ccc5[nH]4)CC3)s2)cc[n+]1[O-]` [Example A-229, 4-[2-[[4-[(5-Chloroindol-2-yl)sulfonyl]piperazin-1-yl]carbonyl]thiazol-5-yl]-2-methylpyridine N-oxide], the IC50 turned out to be 1.6 nM. As for `C#Cc1ccc2[nH]c(S(=O)(=O)N3CCN(C(=O)c4ncc(-c5cc[n+]([O-])cc5)s4)CC3)cc2c1` [Example A-231, 4-[2-[[4-[(5-Ethynylindol-2-yl)sulfonyl]piperazin-1-yl]carbonyl]thiazol-5-yl]pyridine N-oxide], the IC50 stood at 2.3 nM. Turning to `O=C(c1ncc(-c2cc[n+]([O-])cc2)s1)N1CCN(S(=O)(=O)c2cc3ccc(Cl)cc3s2)CC1` [Example A-239, 4-[2-[[4-[(6-Chlorobenzo[b]thien-2-yl)sulfonyl]piperazin-1-yl]carbonyl]thiazol-5-yl]pyridine N-oxide], the IC50 worked out at 3.5 nM. The value for `O=C(CC1CN(S(=O)(=O)c2cc3cc(Cl)ccc3[nH]2)CCN1C(=O)C1CC=C(c2cc[n+]([O-])cc2)CC1)N1CCCCC1` (stereo not drawn) [Example A-259, 4-[4-[[4-[(5-Chloroindol-2-yl)sulfonyl]-2-[(piperidin-1-yl)carbonylmethyl]piperazin-1-yl]carbonyl]-1-cyclohexen-1-yl]pyridine N-oxide] was 3.5 nM; that for `CN(C)C(=O)C[C@@H]1CN(S(=O)(=O)c2cc3ccc(Cl)cc3s2)C[C@H](CC(=O)N(C)C)N1C(=O)c1ncc(-c2cc[n+]([O-])cc2)cn1` [Example A-279, 4-[2-[[2,cis-6-Bis[(N,N-dimethylcarbamoyl)methyl]-4-[(6-chlorobenzo[b]thien-2-yl)sulfonyl]piperazin-1-yl]carbonyl]pyrimidin-5-yl]pyridine N-oxide] was 10 nM.
